Source: patent publication US8133893B2, “Trazodone and trazodone hydrochloride in purified form” (Aziende Chimiche Riunite Angelini Francesco A.C.R.A.F. …, priority 2007, dated 2012)
Values joined by “and” are separate entries in the source; they are usually repeats but may differ in a detail not shown here. Equal entries are not always repeated.

Key:
[1] = as reported in TOXNET, National Library of Medicine; cited from earlier work
[2] = system: Salmonella typhimurium strain TA1535; test: bacterial reverse mutation test (standard plate incorporation assay); format: cell-based
Method: The genotoxic activity of N-(3-chlorophenyl)-N′-(3-chloropropyl)-piperazine has been assessed on histidine-dependent auxotrophic mutants of Salmonella typhimurium strains TA1535, TA1537, TA 98 and TA100, and on tryptophan-dependent mutants of Escherichia coli strain WP2 uvrA (pKM101), exposed to a solution of N-(3-chlorophenyl)-N′-(3-chloropropyl)-piperazine in dimethylsulphoxide (DMSO) and using DMSO as negative control. Two independent mutation tests were performed, both in the presence and absence of a liver microsomal fraction (S9 mix) of rat treated with phenobarbital and 5,6-benzoflavone. Tests were standard plate incorporation assays and performed according to the current regulatory guidelines. A substantial increase in reversion to prototrophy was obtained on strain TA1535 in the presence of S9 mix. In the two assays the increase was concentration related and reached, following exposure to 1500 μg per plate of N-(3-chlorophenyl)-N′-(3-chloropropyl)-piperazine, 6.4 and 5.1 times the control value.

Compound	genotoxicity [1]	genotoxic activity (conclusion) ([2]; bacterial system, following metabolic activation (S9 mix))	increase in reversion to prototrophy ([2]; strain TA1535, in the presence of S9 mix (rat liver microsomal fraction), 1500 μg per plate, two independent assays, DMSO negative control)
2,2-Dichloroethylamine	known genotoxic substances		
ClCCCN1CCN(c2cccc(Cl)c2)CC1 [N-(3-chlorophenyl)-N′-(3-chloropropyl)-piperazine]		exhibited genotoxic activity	6.4 times the control value and 5.1 times the control value
